Results: a melting point compilation (Tetko et al.; mined from patent text by program, amines drawn as free bases though some values may be those of a salt)

| melting point [°C] | Structure (SMILES) |
| --- | --- |
| 117 | CCSc1c(C)nn(-c2c(Cl)cc(C(F)(F)F)cc2Cl)c1N |
| 86 to 87 | CCOC(=O)CN(c1ccncc1F)n1ccc2ccccc21 |
| > 268 | Oc1ccc(-c2ncc3ncc(Nc4ncccn4)cc3n2)cc1 |
| 266 to 270 | NC(=O)c1sc2nccc(N3CCN(c4ccccn4)CC3)c2c1N |
| 87 | O=C1c2ccccc2C(=O)N1OC1C=CCCC1 (configuration not stated) |
| 318 | COc1ccc(-c2nc(O)cc(O)n2)cc1 |
| 154 to 156 | CC1CCCC(C)(C)C1C(O)c1ccc(C(N)=NO)c(F)c1 (configuration not stated) |
| 170 to 171 | COc1cc2c(cc1OC)C1=C(C#N)SC(C)C(=O)N1CC2 (configuration not stated) |
| 114 to 117 | CSc1ccc(CC2CCc3cc(OCCn4ccnc4)ccc3C2=O)cc1 (configuration not stated) |
| 134 to 136 | CN1CCN(c2cc(NC(=O)OC(C)(C)C)c([N+](=O)[O-])cc2I)CC1 |
| 148 to 149 | CCc1ccc(N=c2sc3ncccc3c(=O)n2CC)cc1 |
| 176 to 178 | O=C1N=NC(c2nc(Cl)c(Cl)[nH]2)=N1 |
| 99 | CC(=O)Nc1ccccc1S(=O)(=O)NCCCCN1CCN(c2ncccn2)CC1 |
| 249 to 251 | CCOC(=O)c1cnn2c1c(O)nc1ccccc12 |
| 114 to 120 | C=CC1CCC2C3CC(=O)C4=CC(=O)CCC4(C)C3CCC12C (configuration not stated) |
| 106 to 108 | CC(=O)N(C)Nc1nnc(-c2ccccc2C)s1 |

| melting point [°C] | Structure (SMILES) |
| --- | --- |
| 73 to 75 | Clc1cc(Cl)n2ncc(Br)c2n1 |
| 147 to 150 | CCOC(Cc1ccc(OCC=C2c3ccccc3CCc3ccccc32)cc1)C(=O)O (configuration not stated) |
| 97 | COCCCN1CC[C@@H](CNC(=O)c2cc(Cl)c(N)c3c2OC(C)(C)C3)[C@H](O)C1 (relative stereo) |
| 50 | Cc1ccc2ncc(C)cc2c1 |
| 271 to 272 | Oc1c2c(nc3c(-c4cc(-c5ccccc5)cs4)cnn13)CCCC2 |
| 124 to 126 | Cc1cc(C)c(C(C#N)=CO)c(C)c1 |
| 145 to 147 | CC(=O)N1CC(=O)N/C(=C\c2ncoc2C(C)(C)C)C1=O |
| 109 to 110 | Cc1cnc(NC(=O)C(C)C)o1 |
| 168 to 170 | CCc1ccc2nc(OC)nc(N)c2c1 |
| 178 to 180 | CC1(C)Oc2ccc(C#N)cc2C(OC(=O)C2CCCN2S(=O)(=O)c2ccc(Cl)cc2)C1Br (configuration not stated) |
| 191 to 195 | Cn1ncc2c1CCCc1c-2cnn1C |
| 227 to 229 | NC1=NC(Br)=C(c2ccc(C(F)(F)F)cc2)c2ccccc2C1 |
| 201 to 202 | Cc1cc(N)c(C(=O)O)cc1F |
| 165 | COc1ccc(C(=O)Nc2ccc3ccc(OCC(=O)N(C)C)nc3n2)cc1 |
| 87 to 88 | Cn1cc(Br)cc(Br)c1=O |
| 158 to 163 | CCOC(=O)c1ncc2[nH]c3ccc(CC)cc3c2c1C |

More lines, now with the values behind:

| Structure (SMILES) | melting point [°C] |
| --- | --- |
| NS(=O)(=O)c1ccc(-c2c(-c3ccccc3)noc2COCC(F)(F)CO)cc1 | 93 to 94 |
| CCNC(=O)c1cccc(C(F)(F)F)c1 | 98 to 99 |
| CCOC(=O)c1cc2cc(C)c(C(F)(F)F)cc2n1[C@H](C)CNC(=O)OC(C)(C)C | 103 to 105 |
| CCC1CC2C3CCC4=CC(=O)CCC4C3CCC2(C)C1OC(=O)CBr (configuration not stated) | 118 to 120 |
| O=C(OC1CCN(Cc2ccccc2)CC1)c1ccccc1[N+](=O)[O-] | 98 to 99 |
| CSCC[C@H](N)C(=O)NC(=O)C(CSC(C)=O)Cc1ccccc1 (some centres not stated) | 119 to 121 |
| CCOC(=O)c1cn(C2CC2)c2c(F)c(F)c(F)c(NCc3ccccc3)c2c1=O | 134 to 135 |
| Fc1cccc([C@@H]2COCC(=S)N2)c1 | 124 to 125 |
| O=C(O)C1([N+](=O)[O-])C(c2ccc([N+](=O)[O-])cc2)N=C2C=CC=CN21 (configuration not stated) | > 300 |
| Nc1ncccc1C(=O)NCC1CCN(C[C@H]2COc3ccc4[nH]ccc4c3O2)CC1 | 104 to 106 |
| CCN(CC)C(=O)CCc1nc(-c2ccc([N+](=O)[O-])cc2)nc2ccccc12 | 168 |
| CC(=O)OC(CF)c1sccc1S(N)(=O)=O (configuration not stated) | 97 to 98 |
| CCCc1c(OCCCS(=O)(=O)c2ccc(CC(=O)O)c(Cl)c2Cl)ccc(C(C)=O)c1O | 180 to 181 |
| CCCCCCCCCc1c(C(=O)O)sc2cc(Br)ccc12 | 126 to 127 |
| CC(=O)OCSC1=CCC2C3CCC4=CC(=O)C=CC4(C)C3(F)C(O)CC12C (configuration not stated) | 193 to 194 |
| O=C(OCc1ccccc1)c1ccc(OC(=O)c2ccc(C(=O)Oc3ccc(C(=O)OCc4ccccc4)cc3)cc2)cc1 | 186 to 187 |
| CNC(=O)c1ncc2[nH]c3cccc(Oc4ccc(Cl)cc4)c3c2c1COC | 236 |
| Cc1cc(-n2ccc(O)cc2=O)sc1C(=O)NCc1cccc(F)c1 | 140 to 142 |
| CN1C(C)(C)CC(OC(=O)NNC(=O)OC2CC(C)(C)N(C)C(C)(C)C2)CC1(C)C | 189 to 191 |
| COc1ccc(CC(C)NC(O)Cc2cc3ccccc3o2)cc1 (configuration not stated) | 75 to 85 |
| c1ccc2c(c1)N(CC1CCCCC1)CC21COc2cc3c(cc21)OCO3 (configuration not stated) | 153 to 154 |
| O=S(=O)(Nc1ccc(C2=NC3(O)c4ccc(Cl)cc4CC3S2)cc1)c1ccc(Cl)cc1 (configuration not stated) | 116 |
| O=C(c1ccc(NC(=O)C(O)(C(F)(F)F)C(F)(F)F)cc1)c1ccccn1 | 197 to 200 |
| Cc1ccc(S(=O)(=O)N2CCC[C@H]2C(=O)N[C@@H](Cc2ccc(OCC(=O)NC(C)(C)C)cc2)C(=O)O)cc1 | 88 to 89 |

| Structure (SMILES) | melting point [°C] |
| --- | --- |
| C=CCN1C2CCC1C1CCC2N1C(c1ccc(C(=O)N2CCCC2)cc1)c1cccc(OC)c1 (configuration not stated) | 46 to 48 |
| Cc1ccc(S(=O)(=O)CNC=O)cc1 | 103 to 107 |
| CN(CCCCOCC(=O)O)c1nnc(-c2ccccc2)c(-c2ccccc2)n1 | 108 to 110 |
| Nc1ccc(Oc2cccc3c(Oc4ccc(N)c(O)c4)cccc23)cc1O | 251 to 253 |
| N#Cc1ncccc1OC1SCC(O)C(O)C1O (configuration not stated) | 174 |
| O=C(c1ccc(Nc2ccnc3cc(Cl)ccc23)cc1)N1CCNCC1 | 248 to 250 |
| COc1ccc(-n2nc(C#N)cc2-c2ccc(S(C)(=O)=O)cc2)cc1Br | 184 to 186 |
| COc1cc(OC)cc(-c2nc[nH]c2-c2ccc(OC(F)(F)F)c(N)c2)c1 | 182 to 184 |
| COC(=O)C1=Cc2cc(OCc3ccc(Cl)cc3)ccc2S(=O)(=O)CC1 | 130 to 133 |
| O=S(=O)(c1ccccc1)N1CCC(C(=Nc2ccc(F)cc2)c2ccc(F)cc2)CC1 | 123 to 124 |
| Cc1cc(-c2ccnn2-c2ccc(S(N)(=O)=O)c(F)c2C(F)F)ccc1-c1cscn1 | 204 |
| CCC(OC(=O)CCNC(=O)OC(C)(C)C)c1cc2n(c(=O)c1C)Cc1cc3ccccc3nc1-2 (configuration not stated) | 155 to 158 |
| O=C(O)c1ccccc1Oc1ccc(C(F)(F)F)cc1NS(=O)(=O)c1ccc(Br)cc1 | 167 to 168 |
| O=c1[nH]c2c3ccccc3ccc2n(Cc2ccccc2)c1=O | 308 |
| CCc1cccc(CSC)c1NC(=O)CC1c2ccccc2Oc2ccccc21 | 122 to 123 |
| CCOC(=O)C(NC(=O)OC(C)(C)C)=C1CSCSC1 | 154 |
| CC(C)(C)OC(=O)N1C(Cc2ccccc2)SC[C@H]1C(=O)O (some centres not stated) | 156 |
| C[C@H](/C=C\c1ccc(Cc2ccc(F)cc2)s1)N(O)C(N)=O | 123 to 124 |
| C[C@@H](N(CC(=O)O)C(=O)c1ccc(C(F)(F)F)cc1)[C@](O)(Cn1cncn1)c1ccc(F)cc1F | 132 to 135 |
| NC(=O)N(O)CC1CCCCC1 | 143 to 144 |
| O=C(Cn1c(-c2ccccc2)ncc(NC(=O)OCc2ccc(C(=O)O)cc2)c1=O)NC(Cc1ccccc1)C(=O)C(F)(F)F (configuration not stated) | 202 to 207 |
| CCCn1c(-c2c(Cl)cccc2Cl)nc(-c2ccncc2)c1-c1ccc(Cl)cc1 | 220 to 222 |
| O=[N+]([O-])c1cc(Cl)ccc1I(Cl)Cl | 53 to 60 |
| O=C(O)CCCCCOc1ccc2sc(-c3ccccn3)nc(=O)c2c1 | 205 to 206 |

| Structure (SMILES) | melting point [°C] |
| --- | --- |
| Cc1cc2c(cc1C)SC(CCCBr)C(=O)N2 (configuration not stated) | 151 to 153 |
| Nc1nonc1-c1nc2ccccc2n1CC(=O)c1ccc(Cl)c([N+](=O)[O-])c1 | 198 to 200 |
| CCOC(=O)Cc1c(C(=O)OCC)c(C)cn1C | 71 to 72 |
| CNC(=O)N(O)Cc1ccc(OCCc2nc(-c3ccccc3)oc2C)cc1 | 139 to 144 |
| CN(C(=O)c1ccc(C(=O)C(C)(C)C)cc1)C(=O)c1ccc(C(=O)C(C)(C)C)cc1 | 122 |
| COc1ccc2nc3cc(Cl)ccc3c(Oc3ccc(Cl)cc3)c2c1 | 152 to 153 |
| CCCOc1ccc([N+](=O)[O-])cc1[N+](=O)[O-] | 84 to 86 |
| Oc1ccc(-c2nnc(CSCCCCOc3ccccc3)o2)cc1 | 129 to 130 |
| COC(=O)NC(=O)c1ccc(C=NO)cc1C | 141 to 143 |
| Cn1cc(C(=O)NCc2ccc(Cl)cc2)c(=O)c2cc(CO)sc21 | 222 to 225 |
| CC(C)(C)[C@H](N)C(N)=O | 104 to 105 |
| CN(C(=O)c1c(Cl)cccc1Cl)c1cc(-c2ccc(Cl)cc2)on1 | 175 to 178 |
| Cc1cccc(NC(=O)NCC(=O)N(CC(=O)N2CCc3ccccc3C2)c2ccccc2)c1 | 135 |
| CC(C)C(C(=O)O)c1ccc(O)c([N+](=O)[O-])c1 (configuration not stated) | 103 to 105 |
| Clc1cc(CCc2ccccn2)c2oc(-c3ccsc3)nc2c1 | 126 to 127 |
| NC(=O)CNC(=O)c1cccc(-c2cccc3cc(Cc4cc(F)cc(Cl)c4)sc23)n1 | 200 to 201 |
| CCCCOc1c(CNC(=O)OC(C)(C)C)n(CC(C)C)c(=O)c2ccc(-c3nc(C#N)cs3)cc12 | 160 to 161 |
| O=C(CBr)CCc1ccc(I)cc1 | 76 to 77 |
| Clc1ccc2c(c1)Cc1ccc(-c3nnn[nH]3)cc1S2 | 257 |
| O=C1NNC(C=Cc2ccc([N+](=O)[O-])cc2)CS1 (configuration not stated) | 231 to 240 |
| O=S(CCCCl)Cc1ccccc1 (configuration not stated) | 70 to 71 |
| O=C1CCC(N2Cc3cc(CNC(=O)Nc4cccc5ccccc45)ccc3C2=O)C(=O)N1 (configuration not stated) | 250 to 252 |
